Legend:
[1] = system: SCM-responding lymphocytes; experiment: SCM-response modifying effect of α-1-PI (SCM test after preincubation and washing); type: cell-based, human; details: 2.5 hr α-1-PI + 3X Wash
Experimental: SCM-responding lymphocytes were isolated from blood samples of a patient with malignant melanoma and from a normal, healthy donor. Half of the lymphocyte suspension from each sample was incubated with 30 nanomoles of α-1-PI per 6×10^6 cells for 2.5 hours at 37° C.; the other half was retained as an untreated control. The cells were then washed three times with PBS. Aliquots from both the untreated controls and the α-1-PI-treated samples were challenged for 40 min with phytohemagglutinin (PHA) or SCM factor. […] The RRSCM was 1.74 in the absence of incubation and 1.68 after incubation.

[2] = system: trypsin; experiment: Casein-resorufin protease assay: inhibition of trypsin by α-1-PI; type: biochemical; details: 3 μg Trypsin + 6.6 μg α-1-PI; 300 μL
Experimental: (§1) A protease activity using casein-resorufin as a protease substrate was performed to determine the effect of SCM factor on inhibition of the serine proteases trypsin, elastase, and cathepsin G by the serine protease inhibitor α-1-PI. The protocol provided by the manufacturer, Boehringer-Mannheim Biochemica, was followed to assay protease activity. […] However, when SCM factor was added before α-1-PI or simultaneously in a mixture with α-1-PI, it prevented the inhibition of trypsin by α-1-PI. The degree of this effect depended on the quantity of SCM factor added. […] The active portion of the molecule that prevents inhibition of the proteolytic enzymes by α- 1-PI resides within the first seven amino-terminal amino acid residues of the SCM factor. This portion of the molecule is designated "fraction 6" or F6. The effectiveness of equimolar amounts of the peptide F6, as compared to the entire SCM factor molecule (Table 20) in preventing the inhibition of elastase by α-1-PI is shown in Table 22.

[3] = system: elastase; experiment: Casein-resorufin protease assay: inhibition of elastase by α-1-PI; type: biochemical; details: 3.2 μg Elastase + 6.6 μg α-1-PI
Experimental: as §1

[4] = target: T1, cathepsin G (Homo sapiens, UniProt P08311); experiment: Casein-resorufin protease assay: inhibition of cathepsin G by α-1-PI; type: biochemical; details: 1 μg Cathepsin G + 6.6 μg α-1-PI; 300 μL
T1 sequence (P08311 21-244 limits assumed): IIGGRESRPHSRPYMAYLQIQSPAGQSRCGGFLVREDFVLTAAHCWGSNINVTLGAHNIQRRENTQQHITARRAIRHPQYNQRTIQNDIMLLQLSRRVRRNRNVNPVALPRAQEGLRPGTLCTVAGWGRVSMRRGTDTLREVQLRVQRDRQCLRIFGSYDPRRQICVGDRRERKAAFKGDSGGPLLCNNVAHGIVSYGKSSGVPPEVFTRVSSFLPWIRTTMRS
Experimental: as §1

α-1-PI: glycoprotein serine protease inhibitor, 55,000 daltons, single chain of 394 residues
RRSCM ([1]; lymphocyte donor Healthy): 1.68 | RRSCM ([1]; lymphocyte donor Malignant Melanoma): 1.8 | Trypsin Activity in Casein-Resorufin Assay as % of Untreated Control Enzyme [2]: 13.6% | Trypsin Activity in Casein-Resorufin Assay as % of Untreated Control Enzyme ([3]; 300 μL (Table 20)): 3.5% | Elastase Activity in Casein-Resorufin Assay as % of Untreated Control Enzyme ([3]; 300 μL (Table 22)): 3.4% | Cathepsin G Activity in Casein-Resorufin Assay as % of Untreated Control Enzyme [4]: 20.0%

Source: patent publication US5443967A, “DNA encoding the cancer associated SCM recognition factor” (priority 1993, dated 1995)
